Columns and labels:
Format in all cases: cell-based
[1] = system: Scenedesmus obliquus; assay: Effect of hormone concentrations on growth rate of Scenedesmus obliquus, heterotrophic; conditions: 48 hours, control 0.35
[2] = system: Chlorella protothecoides; assay: Effect of hormone concentrations on growth rate of Chlorella protothecoides, photoheterotrophic; conditions: 48 hours, control 1.05
Method: The influence of light exposure during Scenedesmus obliquus and Chlorella protothecoides growth was assessed. The growth rates of both algae were higher in photoheterotrophic growth conditions. The Scenedesmus obliquus growth rate was about 86.7% higher under photoheterotrophic growth. Meanwhile, the Chlorella protothecoides growth rate increased 39.07% when the growth was conducted under photoheterotrophic growth.

[3] = system: Chlorella protothecoides; assay: Effect of hormone concentrations on growth rate of Chlorella protothecoides, heterotrophic; conditions: 48 hours, control 1.54
[4] = system: Scenedesmus obliquus; assay: Effect of hormone concentrations on growth rate of Scenedesmus obliquus, photoheterotrophic; conditions: 48 hours, control 0.41
[5] = system: Auxenochlorella protothecoides; assay: Auxenochlorella protothecoides culture with growth regulator, dry weight and oil after seven days; conditions: 2 mg/L
Method: Auxenochlorella protothecoides was grown in Bristol's medium (see above) amended with 0.1% yeast extract (see above) and 0.5% glucose (control cells). Two other groups were cultured in the same medium with either indole acetic acid (2 mg/L, Cat. No. 12886, Sigma-Aldrich Canada Ltd.) or giberellic acid (2 mg/L, Cat. No. G7645, Sigma-Aldrich Canada Ltd.) added. Dry weights were determined and compared between the culture groups after seven days.

Compound: O=C(O)Cc1cccc2ccccc12 [1-Naphthaleneacetic acid]
- growth rate ([1]; 0.01 ng): 0.26
- growth rate ([1]; 0.1 ng): 0.28
- growth rate ([1]; 1 ng): 0.33
- growth rate ([1]; 10 ng): 0.28
- growth rate ([1]; 100 ng): 0.39
- growth rate ([2]; 0.01 ng): 1.00
- growth rate ([2]; 0.1 ng): 1.02
- growth rate ([2]; 1 ng): 1.05
- growth rate ([2]; 10 ng): 1.07
- growth rate ([2]; 100 ng): 1.16
- growth rate ([3]; 0.01 ng): 1.66
- growth rate ([3]; 0.1 ng): 1.54
- growth rate ([3]; 1 ng): 1.62
- growth rate ([3]; 10 ng): 1.57
- growth rate ([3]; 100 ng): 1.62
- growth rate ([4]; 0.01 ng): 0.84
- growth rate ([4]; 0.1 ng): 0.85
- growth rate ([4]; 1 ng): 0.81
- growth rate ([4]; 10 ng): 0.80
- growth rate ([4]; 100 ng): 0.73

Compound: O=C(O)COc1ccc(Cl)cc1Cl [2,4-Dichlorophenoxyacetic, 2,4-dichlorophenoxyacetic acid]
- growth rate ([1]; 0.01 ng): 0.28
- growth rate ([1]; 0.1 ng): 0.23
- growth rate ([1]; 1 ng): 0.31
- growth rate ([1]; 10 ng): 0.24
- growth rate ([1]; 100 ng): 0.23
- growth rate ([2]; 0.01 ng): 1.09
- growth rate ([2]; 0.1 ng): 1.08
- growth rate ([2]; 1 ng): 1.01
- growth rate ([2]; 10 ng): 1.08
- growth rate ([2]; 100 ng): 1.03
- growth rate ([3]; 0.01 ng): 1.40
- growth rate ([3]; 0.1 ng): 1.53
- growth rate ([3]; 1 ng): 1.43
- growth rate ([3]; 10 ng): 1.31
- growth rate ([3]; 100 ng): 1.50
- growth rate ([4]; 0.01 ng): 0.42
- growth rate ([4]; 0.1 ng): 0.44
- growth rate ([4]; 1 ng): 0.47
- growth rate ([4]; 10 ng): 0.44
- growth rate ([4]; 100 ng): 0.33

Compound: c1ccc(CNc2ncnc3nc[nH]c23)cc1 [6-Benzylaminopurine, 6-benzylaminopurine]
- growth rate ([1]; 0.01 ng): 0.28
- growth rate ([1]; 0.1 ng): 0.32
- growth rate ([1]; 1 ng): 0.39
- growth rate ([1]; 10 ng): 0.36
- growth rate ([1]; 100 ng): 0.33
- growth rate ([2]; 0.01 ng): 1.00
- growth rate ([2]; 0.1 ng): 1.12
- growth rate ([2]; 1 ng): 1.07
- growth rate ([2]; 10 ng): 1.04
- growth rate ([2]; 100 ng): 1.08
- growth rate ([3]; 0.01 ng): 1.48
- growth rate ([3]; 0.1 ng): 1.54
- growth rate ([3]; 1 ng): 1.50
- growth rate ([3]; 10 ng): 1.52
- growth rate ([3]; 100 ng): 1.46
- growth rate ([4]; 0.01 ng): 0.46
- growth rate ([4]; 0.1 ng): 0.37
- growth rate ([4]; 1 ng): 0.47
- growth rate ([4]; 10 ng): 0.47
- growth rate ([4]; 100 ng): 0.52

Compound: C=C1C[C@]23C[C@@]1(O)CC[C@H]2[C@@]12C=C[C@H](O)[C@@](C)(C(=O)O1)[C@H]2[C@@H]3C(=O)O [Gibberellic acid]
- growth rate ([1]; 0.01 ng): 0.44
- growth rate ([1]; 0.1 ng): 0.50
- growth rate ([1]; 1 ng): 0.43
- growth rate ([1]; 10 ng): 0.36
- growth rate ([1]; 100 ng): 0.42
- growth rate ([2]; 0.01 ng): 1.06
- growth rate ([2]; 0.1 ng): 1.02
- growth rate ([2]; 1 ng): 1.00
- growth rate ([2]; 10 ng): 1.09
- growth rate ([2]; 100 ng): 1.10
- increase of dry cell mass relative to the control [5]: 20%
- growth rate ([3]; 0.01 ng): 1.52
- growth rate ([3]; 0.1 ng): 1.52
- growth rate ([3]; 1 ng): 1.46
- growth rate ([3]; 10 ng): 1.52
- growth rate ([3]; 100 ng): 1.46
- growth rate ([4]; 0.01 ng): 0.59
- growth rate ([4]; 0.1 ng): 0.47
- growth rate ([4]; 1 ng): 0.56
- growth rate ([4]; 10 ng): 0.56
- growth rate ([4]; 100 ng): 0.51

Compound: O=C(O)Cc1c[nH]c2ccccc12 [Indole-3-acetic acid, indole-3-acetic acid]
- growth rate ([1]; 0.01 ng): 0.23
- growth rate ([1]; 0.1 ng): 0.36
- growth rate ([1]; 1 ng): 0.42
- growth rate ([1]; 10 ng): 0.47
- growth rate ([1]; 100 ng): 0.41
- growth rate ([2]; 0.01 ng): 1.06
- growth rate ([2]; 0.1 ng): 1.05
- growth rate ([2]; 1 ng): 0.97
- growth rate ([2]; 10 ng): 1.13
- growth rate ([2]; 100 ng): 1.02
- increase of dry cell mass relative to the control [5]: 50%
- increase of oil production [5]: 15%
- growth rate ([3]; 0.01 ng): 1.62
- growth rate ([3]; 0.1 ng): 1.61
- growth rate ([3]; 1 ng): 1.49
- growth rate ([3]; 10 ng): 1.60
- growth rate ([3]; 100 ng): 1.60
- growth rate ([4]; 0.01 ng): 0.42
- growth rate ([4]; 0.1 ng): 0.47
- growth rate ([4]; 1 ng): 0.49
- growth rate ([4]; 10 ng): 0.49
- growth rate ([4]; 100 ng): 0.62

Compound: c1coc(CNc2ncnc3[nH]cnc23)c1 [Kinetin, kinetin]
- growth rate ([1]; 0.01 ng): 0.28
- growth rate ([1]; 0.1 ng): 0.26
- growth rate ([1]; 1 ng): 0.36
- growth rate ([1]; 10 ng): 0.31
- growth rate ([1]; 100 ng): 0.28
- growth rate ([2]; 0.01 ng): 1.08
- growth rate ([2]; 0.1 ng): 1.10
- growth rate ([2]; 1 ng): 1.02
- growth rate ([2]; 10 ng): 1.18
- growth rate ([2]; 100 ng): 1.19
- growth rate ([3]; 0.01 ng): 1.60
- growth rate ([3]; 0.1 ng): 1.50
- growth rate ([3]; 1 ng): 1.44
- growth rate ([3]; 10 ng): 1.60
- growth rate ([3]; 100 ng): 1.58
- growth rate ([4]; 0.01 ng): 0.57
- growth rate ([4]; 0.1 ng): 0.73
- growth rate ([4]; 1 ng): 0.92
- growth rate ([4]; 10 ng): 0.37
- growth rate ([4]; 100 ng): 0.36

— patent US20210307272A1, “USE OF PLANT GROWTH REGULATORS TO ENHANCE ALGAE GROWTH FOR THE PRODUCTION OF ADDED VALUE PRODUCTS” (priority 2009, published 2021)
